Like-named read-outs stand apart in the source and are kept apart here.
Assays:
[1] = Stability by HPLC peak area decrease, first order decay half-life; assay type: physicochemical; conditions: culture media, First order decay half-life (t1/2)
[2] = buffer; cited from earlier work

Structure (SMILES): C[C@@]12c3ccc4c(c3C(=O)c3occ(c31)C(=O)C[C@H]2OC(=O)CCC(=O)O)CCC4=O [SA-Dmv]
- half-life [1]: < 1 min

Structure (SMILES): COC[C@H]1OC(=O)c2coc3c2[C@@]1(C)C1=C(C3=O)[C@@H]2CCC(=O)[C@@]2(C)C[C@H]1OC(C)=O [Wm, wortmannin]
- half-life [1]: < 1 min
- half-life [2]: 57.8 h
